Assay results published in PubChem BioAssay (NCI).
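How tested: cells in 96-well plates exposed to compound for 48 hours at five concentrations. TGI denotes the concentration required for complete inhibition of growth.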

What was measured:
Test in all cases: NCI tumour cell line growth inhibition, 48 h
UO-31 renal = test system: UO-31 renal
SR leukemia = test system: SR leukemia
NCI/ADR-RES ovarian = test system: NCI/ADR-RES ovarian
M14 melanoma = test system: M14 melanoma
HCT-116 colon = test system: HCT-116 colon
OVCAR-3 ovarian = test system: OVCAR-3 ovarian
SK-MEL-2 melanoma = test system: SK-MEL-2 melanoma
SW-620 colon = test system: SW-620 colon
NCI-H460 lung = test system: NCI-H460 lung
HCC-2998 colon = test system: HCC-2998 colon

CC(=O)Oc1cc(OC(C)=O)c2c(C)cc(=O)oc2c1
TGI (UO-31 renal): > 100 µM | TGI (SR leukemia): > 100 µM | TGI (NCI/ADR-RES ovarian): > 100 µM | TGI (M14 melanoma): > 100 µM | TGI (HCT-116 colon): > 100 µM | TGI (OVCAR-3 ovarian): > 100 µM | TGI (SK-MEL-2 melanoma): > 100 µM | TGI (SW-620 colon): > 100 µM

CCOc1ccc(/C=C2\NC(=S)N(/C=C3\C(=O)Oc4ccccc4C3=O)C2=O)cc1
TGI (UO-31 renal): 49.4 µM | TGI (NCI/ADR-RES ovarian): 45.7 µM | TGI (M14 melanoma): 92.4 µM | TGI (NCI-H460 lung): 51.8 µM | TGI (HCT-116 colon): 39.9 µM | TGI (OVCAR-3 ovarian): 44.6 µM | TGI (SK-MEL-2 melanoma): 48 µM | TGI (HCC-2998 colon): > 100 µM | TGI (SW-620 colon): > 100 µM

CCCc1nnc2sc(COc3cc(Cl)c(OCc4nn5c(CCC)nnc5s4)cc3Cl)nn12
TGI (SR leukemia): 1.77 µM | TGI (NCI/ADR-RES ovarian): > 100 µM | TGI (M14 melanoma): > 100 µM | TGI (NCI-H460 lung): > 100 µM | TGI (HCT-116 colon): > 100 µM | TGI (OVCAR-3 ovarian): 78.5 µM | TGI (SK-MEL-2 melanoma): > 100 µM | TGI (HCC-2998 colon): > 100 µM | TGI (SW-620 colon): > 100 µM

COc1ccc2[nH]c(C(=O)N3CC(CCl)c4c3cc(N)c3ccccc43)cc2c1 (stereo unspecified)
TGI (UO-31 renal): < 0.0164 µM | TGI (NCI/ADR-RES ovarian): < 0.0172 µM | TGI (HCT-116 colon): 1.09 µM | TGI (OVCAR-3 ovarian): > 100 µM | TGI (SK-MEL-2 melanoma): 0.0285 µM | TGI (HCC-2998 colon): < 0.01 µM | TGI (SW-620 colon): 0.132 µM

N[C@H](CCC(=O)NCP(=O)(O)O)C(=O)O
TGI (UO-31 renal): > 100 µM | TGI (SR leukemia): > 100 µM | TGI (NCI/ADR-RES ovarian): > 100 µM | TGI (NCI-H460 lung): > 100 µM | TGI (HCT-116 colon): > 100 µM | TGI (OVCAR-3 ovarian): > 100 µM | TGI (SK-MEL-2 melanoma): > 100 µM | TGI (HCC-2998 colon): > 100 µM | TGI (SW-620 colon): > 100 µM

COC(=O)c1ccccc1C1=C([N+](=O)[O-])C(c2ccccc2)C(C#N)=C(N)O1 (stereo unspecified)
TGI (SR leukemia): > 100 µM | TGI (NCI/ADR-RES ovarian): > 100 µM | TGI (M14 melanoma): > 100 µM | TGI (NCI-H460 lung): > 100 µM | TGI (HCT-116 colon): > 100 µM | TGI (OVCAR-3 ovarian): 88.9 µM | TGI (SK-MEL-2 melanoma): > 100 µM | TGI (HCC-2998 colon): > 100 µM | TGI (SW-620 colon): > 100 µM

C[n+]1c2ccccc2c(/C=N\NS(=O)(=O)c2ccc(Cl)cc2)c2ccccc21
TGI (UO-31 renal): > 100 µM | TGI (M14 melanoma): > 100 µM | TGI (NCI-H460 lung): > 100 µM | TGI (HCT-116 colon): > 100 µM | TGI (OVCAR-3 ovarian): > 100 µM | TGI (SK-MEL-2 melanoma): > 100 µM | TGI (HCC-2998 colon): > 100 µM | TGI (SW-620 colon): > 100 µM

COc1ccc([C@]23CCN4COC[C@@H]([C@H]42)C2(CC3)OCC(C)(C)CO2)cc1OC
TGI (UO-31 renal): > 100 µM | TGI (SR leukemia): > 100 µM | TGI (NCI/ADR-RES ovarian): > 100 µM | TGI (M14 melanoma): > 100 µM | TGI (NCI-H460 lung): > 100 µM | TGI (HCT-116 colon): > 100 µM | TGI (SK-MEL-2 melanoma): > 100 µM | TGI (HCC-2998 colon): > 100 µM | TGI (SW-620 colon): > 100 µM

Cc1ccc(S(=O)(=O)n2ccc(-c3ccc4ccn(S(=O)(=O)c5ccc(C)cc5)c4c3)c2)cc1
TGI (UO-31 renal): > 100 µM | TGI (SR leukemia): > 100 µM | TGI (NCI/ADR-RES ovarian): > 100 µM | TGI (M14 melanoma): > 100 µM | TGI (HCT-116 colon): > 100 µM | TGI (OVCAR-3 ovarian): > 100 µM | TGI (SK-MEL-2 melanoma): > 100 µM | TGI (HCC-2998 colon): > 100 µM | TGI (SW-620 colon): > 100 µM

CN[C@@H](C)[C@@H](O)c1ccccc1
TGI (UO-31 renal): > 100 µM | TGI (NCI/ADR-RES ovarian): > 100 µM | TGI (M14 melanoma): > 100 µM | TGI (NCI-H460 lung): > 100 µM | TGI (HCT-116 colon): > 100 µM | TGI (OVCAR-3 ovarian): > 10 µM | TGI (SK-MEL-2 melanoma): > 100 µM | TGI (HCC-2998 colon): > 100 µM | TGI (SW-620 colon): > 100 µM

O=C(O)CCc1ccc2c(c1)CC1(Cc3ccccc3C1)C2
TGI (UO-31 renal): > 100 µM | TGI (SR leukemia): > 100 µM | TGI (NCI/ADR-RES ovarian): > 100 µM | TGI (M14 melanoma): > 100 µM | TGI (HCT-116 colon): > 100 µM | TGI (OVCAR-3 ovarian): > 100 µM | TGI (SK-MEL-2 melanoma): > 100 µM | TGI (HCC-2998 colon): > 100 µM

Nc1ccc2ccc(-c3ccc[nH]3)nc2n1
TGI (UO-31 renal): > 100 µM | TGI (NCI/ADR-RES ovarian): > 100 µM | TGI (M14 melanoma): > 100 µM | TGI (NCI-H460 lung): > 100 µM | TGI (HCT-116 colon): > 100 µM | TGI (OVCAR-3 ovarian): > 100 µM | TGI (SK-MEL-2 melanoma): > 100 µM | TGI (HCC-2998 colon): > 100 µM | TGI (SW-620 colon): > 100 µM

N=c1oc2ccccc2cc1-c1nc2ccccc2c(=O)[nH]1
TGI (UO-31 renal): > 100 µM | TGI (SR leukemia): > 100 µM | TGI (NCI/ADR-RES ovarian): > 100 µM | TGI (M14 melanoma): > 100 µM | TGI (NCI-H460 lung): > 100 µM | TGI (HCT-116 colon): > 100 µM | TGI (SK-MEL-2 melanoma): > 100 µM | TGI (HCC-2998 colon): > 100 µM | TGI (SW-620 colon): > 100 µM

COc1cc(CCN(C)C)cc(OC)c1OC
TGI (SR leukemia): > 100 µM | TGI (NCI/ADR-RES ovarian): > 100 µM | TGI (M14 melanoma): > 100 µM | TGI (NCI-H460 lung): > 100 µM | TGI (HCT-116 colon): > 100 µM | TGI (OVCAR-3 ovarian): > 100 µM | TGI (SK-MEL-2 melanoma): > 100 µM | TGI (HCC-2998 colon): > 100 µM | TGI (SW-620 colon): > 100 µM

CCOC(=O)C(=O)CC(=O)C1=C(c2ccccc2OC)CC(c2cccs2)=CC1=O
TGI (UO-31 renal): > 100 µM | TGI (NCI/ADR-RES ovarian): > 100 µM | TGI (M14 melanoma): > 100 µM | TGI (NCI-H460 lung): > 100 µM | TGI (HCT-116 colon): > 100 µM | TGI (OVCAR-3 ovarian): > 100 µM | TGI (SK-MEL-2 melanoma): > 100 µM | TGI (SW-620 colon): > 100 µM

N#CC[N+]1(Cc2ccccn2)CCCC1
TGI (UO-31 renal): > 100 µM | TGI (NCI/ADR-RES ovarian): > 100 µM | TGI (M14 melanoma): > 100 µM | TGI (NCI-H460 lung): > 100 µM | TGI (HCT-116 colon): > 100 µM | TGI (OVCAR-3 ovarian): > 100 µM | TGI (SK-MEL-2 melanoma): > 100 µM | TGI (HCC-2998 colon): > 100 µM | TGI (SW-620 colon): > 100 µM

CCC(=O)/C(=C\I)c1ccccc1
TGI (UO-31 renal): 4.2 µM | TGI (NCI/ADR-RES ovarian): 32.2 µM | TGI (M14 melanoma): 4.72 µM | TGI (NCI-H460 lung): 25.5 µM | TGI (HCT-116 colon): 3.3 µM | TGI (OVCAR-3 ovarian): 3.12 µM | TGI (SK-MEL-2 melanoma): 4.41 µM

CC(=O)OCCCCn1cc(Cn2ccc(=O)n(Cc3cn(CCCCOC(C)=O)nn3)c2=O)nn1
TGI (UO-31 renal): > 100 µM | TGI (NCI/ADR-RES ovarian): > 100 µM | TGI (M14 melanoma): > 100 µM | TGI (HCT-116 colon): > 100 µM | TGI (OVCAR-3 ovarian): > 100 µM | TGI (SK-MEL-2 melanoma): > 100 µM | TGI (HCC-2998 colon): > 100 µM | TGI (SW-620 colon): > 100 µM

COc1c(C)c(C/C=C(\C)CC/C=C(\C)CC/C=C(\C)CCC=C(C)C)c(OC)c2ccccc12
TGI (UO-31 renal): > 100 µM | TGI (SR leukemia): 90.6 µM | TGI (NCI/ADR-RES ovarian): > 100 µM | TGI (M14 melanoma): > 100 µM | TGI (NCI-H460 lung): > 100 µM | TGI (HCT-116 colon): > 100 µM | TGI (OVCAR-3 ovarian): > 100 µM | TGI (SK-MEL-2 melanoma): > 100 µM | TGI (SW-620 colon): > 100 µM

O=C1/C(=C/c2ccccc2)NC(=S)N1CN1CCCCC1
TGI (UO-31 renal): > 100 µM | TGI (SR leukemia): > 100 µM | TGI (NCI/ADR-RES ovarian): > 100 µM | TGI (M14 melanoma): > 100 µM | TGI (HCT-116 colon): > 100 µM | TGI (OVCAR-3 ovarian): > 100 µM | TGI (SK-MEL-2 melanoma): > 100 µM | TGI (SW-620 colon): > 100 µM

O=C(c1ccc(O)c([N+](=O)[O-])c1)c1ccc(O)c([N+](=O)[O-])c1
TGI (UO-31 renal): > 100 µM | TGI (NCI/ADR-RES ovarian): > 100 µM | TGI (M14 melanoma): > 100 µM | TGI (NCI-H460 lung): > 100 µM | TGI (HCT-116 colon): > 100 µM | TGI (OVCAR-3 ovarian): > 100 µM | TGI (SK-MEL-2 melanoma): > 100 µM | TGI (HCC-2998 colon): > 100 µM | TGI (SW-620 colon): > 100 µM

COc1ccc2c(c1)CCN1CCCc3ccccc3C21 (stereo unspecified)
TGI (UO-31 renal): > 100 µM | TGI (SR leukemia): > 100 µM | TGI (NCI/ADR-RES ovarian): > 100 µM | TGI (M14 melanoma): 37.9 µM | TGI (HCT-116 colon): 92.8 µM | TGI (OVCAR-3 ovarian): > 100 µM | TGI (SK-MEL-2 melanoma): > 100 µM | TGI (HCC-2998 colon): 80.8 µM | TGI (SW-620 colon): > 100 µM

COc1cccc(-c2nccc3c(OCc4ccccc4)c(OC)c(OC)cc23)c1
TGI (UO-31 renal): > 100 µM | TGI (SR leukemia): > 100 µM | TGI (M14 melanoma): > 100 µM | TGI (HCT-116 colon): > 100 µM | TGI (OVCAR-3 ovarian): > 100 µM | TGI (SK-MEL-2 melanoma): > 100 µM | TGI (HCC-2998 colon): > 100 µM | TGI (SW-620 colon): > 100 µM
